This passage reports Kd results from publication PMC11477141, “Chemokine Receptor N-Terminus Charge Dictates Reliance on Post-Translational Modifications for Effective Ligand Capture and Following Boosting by Defense Peptides” (International Journal of Molecular Sciences, 2024).

Assay [1] concerns the target fully sulfated version of the CCR1 N-terminal peptide. Also on record: method as in PMID 30567735. To be noted: read-out: affinity for the fully sulfated version of the CCR1 N-terminal peptide; cited from earlier work.
The target in assay [2] is naked CCR1 N-terminus (Homo sapiens, UniProt P32246). As to the kind of experiment: Fluorescence polarization binding to FAM-labeled CCR1 N-terminal peptide. To be noted: FAM probe 250 nM, FP buffer PBS:MilliQ 1:3, peptide 12.21 nM to 100 µM, n = 3, read-out: dissociation constant (Kd) for CCR1 N-terminal peptide. On the procedure: Fluorescence polarization (FP) assay: The carboxyfluorescein (FAM)-labeled peptides representing the CCR1 and CCR5 N-termini functioned as the probes for quantifying the interaction between the receptor N-terminus and C21TP^81-111. The probe was diluted in FP buffer (1:3, PBS:MilliQ) and 10 µL was added to a final concentration of 250 nM per well in a black 384-well plate (Corning). The C21TP^81-111 peptide (2 mM) was diluted using a two-fold dilution series; 30 µL of the peptide was added to each well to final concentrations ranging from 12.21 nM to 100 µM. Blanks containing 10 µL probe and 30 µL FP buffer were included. The plate was spun down at 1000 rpm for 1 min and the FP signal was measured on a Flex station using SoftMax Pro software 7.0. Each experiment was conducted in triplicate. The binding curves were generated by plotting the FP signal, expressed as millipolarization units (mP), against C21TP^81-111 concentration. The dissociation constant (Kd) value was calculated using GraphPad Prism 9.
Probes: • CCR1: (5,6-FAM)-[…], • CCR5: (5,6-FAM)-ADYQVSSPIYDINYYTSEP.
Background: In fluorescence polarisation assays a small probe gives low polarisation when free and higher when bound to something large.

Where no end group is shown, it is not given here.

Sequence of naked CCR1 N-terminus (P32246 with tags, fused parts or gaps limits assumed): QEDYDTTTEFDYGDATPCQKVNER

For “CCL5: human chemokine from Peprotech, overall basic”, the Kd in assay [1] is 100 nM.

As for “RKDRGASKTGKKGKGSKGCKRTERSQTPKGP [C21TP^81-111]”, in assay [2], the Kd was about 2890 nM.
